The values below come from BindingDB's records for doi:10.1021/jm00042a004 (College of Pharmacy, 1994).

Assay [1] deals with Reverse transcriptase/RNase H (HIV-1). Description: The 50% inhibitory concentration was measured as inhibition of DNA-dependent DNA polymerase activity.
Assay [2] has the same target. Description: The 50% inhibitory concentration was measured as inhibition of RNA-dependent DNA polymerase activity.

With `O=S(=O)(O)c1ccc2c(OS(=O)(=O)c3cccc4c(S(=O)(=O)Oc5cc(S(=O)(=O)O)cc6cc(S(=O)(=O)O)ccc56)cccc34)cc(S(=O)(=O)O)cc2c1` [4-[5-(3,6-disulfo-1-naphthyloxysulfonyl)-1-naphthylsulfonyloxy]-2,7-naphthalenedisulfonic acid], the IC50 was 91.3 µM in assay [1] and 4.3 µM in assay [2].

As to `CCCCCCCCCCCCCCCC(=O)Nc1ccc(S(=O)(=O)O)c2cccc(S(=O)(=O)O)c12` [4-Hexadecanoylamino-naphthalene-1,5-disulfonic acid], the values for the IC50 in assay [1] and in assay [2] were 6.7 µM and 1.6 µM, respectively.

Regarding `O=C(Oc1cc(S(=O)(=O)O)cc2cc(S(=O)(=O)O)ccc12)c1ccc(-c2ccc(C(=O)Oc3cc(S(=O)(=O)O)cc4cc(S(=O)(=O)O)ccc34)cc2)cc1` [Biphenyl-4,4'-dicarboxylic acid bis-(3,6-disulfo-naphthalen-1-yl) ester], the IC50 in assay [1] was found to be 6.9 µM; in assay [2], 3.4 µM.

`CCCCCCCCCCCCCCCC(=O)Nc1c(O)cc(S(=O)(=O)O)c2ccccc12` [4-Hexadecanoylamino-3-hydroxy-naphthalene-1-sulfonic acid] registered an IC50 in assay [2] of 3.2 µM.
